Measurements: patent US9708336B2, “Metallo-beta-lactamase inhibitors” (priority 2014, dated 2017)
Where two headings read alike, the source gives them in different places.

Columns and labels:
[1] = target: IMP-1 (Serratia marcescens, UniProt P52699); experiment: biochemical; type: biochemical
[2] = target: VIM-1 (Pseudomonas aeruginosa (strain ATCC 15692 / DSM 22644 / CIP 104116 / JCM 14847 / LMG 12228 / 1C / PRS 101 / PAO1), UniProt A0A0F7KYQ8); experiment: Enzyme activity: determination of IC50, fluorescence assay with CCF2-FA substrate (VIM-1); type: biochemical
[3] = tested on: Escherichia coli expressing NDM-1 (CLB30016); experiment: Antibiotic potentiation activity: synergistic concentration (MITC95) with imipenem, OD600 growth; type: cell-based
How it was run: (§1)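 Overnight colonies (35 °C) were suspended in saline, diluted 1:100 into 1.1× CAMHB, and exposed to test compound with imipenem at 4 μg/ml (optionally 1 μg/ml) in assay. After 22–24 h at 35 °C, growth was read by absorbance.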

[4] = tested on: Serratia marcescens expressing IMP-1 (CL5741); experiment: as above; type: cell-based
How it was run: as §1

[5] = tested on: Klebsiella pneumoniae expressing VIM-1 (IHMA599644); experiment: as above; type: cell-based
How it was run: as §1

[6] = target: NDM-1 (Klebsiella pneumoniae, UniProt C7C422); experiment: biochemical; type: biochemical; conditions: read-out: NDM-1 IC50
NDM-1, sequence (C7C422 whole entry, looked up, species assumed): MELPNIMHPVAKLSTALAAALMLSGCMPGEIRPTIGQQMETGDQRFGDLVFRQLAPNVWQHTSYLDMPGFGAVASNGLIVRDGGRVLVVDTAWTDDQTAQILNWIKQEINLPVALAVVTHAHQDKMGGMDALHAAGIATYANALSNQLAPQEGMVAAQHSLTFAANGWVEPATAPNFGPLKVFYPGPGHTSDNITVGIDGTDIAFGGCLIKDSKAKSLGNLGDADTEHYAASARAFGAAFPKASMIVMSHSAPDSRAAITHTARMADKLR

[7] = fluorescence assay with CCF2-FA substrate, read-out: IMP-1 IC50
[8] = fluorescence assay with CCF2-FA substrate, read-out: VIM-1 IC50
[9] = CLB30016 (NDM-1), 95% inhibition of bacterial growth
[10] = CL5741 (IMP-1), 95% inhibition of bacterial growth
[11] = IHMA599644 (VIM-1), 95% inhibition of bacterial growth
[12] = fluorescence assay with CCF2-FA substrate
[13] = VIM-1 enzyme, CCF2-FA substrate, read-out: VIM-1 IC50
[14] = (CLB30016, NDM-1), 95% growth inhibition
[15] = Serratia marcescens CL5741 (IMP-1), 95% growth inhibition
[16] = Klebsiella pneumoniae IHMA599644 (VIM-1), 95% growth inhibition
[17] = NDM-1 enzyme, CCF2-FA substrate
[18] = concentration giving 95% inhibition of bacterial growth
[19] = IMP-1 enzyme, CCF2-FA fluorescence assay, read-out: IMP-1 IC50
[20] = Escherichia coli expressing NDM-1 (CLB30016), 95% growth inhibition
[21] = Serratia marcescens expressing IMP-1 (CL5741), 95% growth inhibition
[22] = Klebsiella pneumoniae expressing VIM-1 (IHMA599644), 95% growth inhibition
[23] = NDM-1 enzyme, CCF2-FA fluorescence assay
[24] = VIM-1 enzyme, CCF2-FA fluorescence assay, read-out: VIM-1 IC50
[25] = IMP-1 enzyme, CCF2-FA substrate, read-out: IMP-1 IC50

IMP-1, sequence (P52699 whole entry, looked up): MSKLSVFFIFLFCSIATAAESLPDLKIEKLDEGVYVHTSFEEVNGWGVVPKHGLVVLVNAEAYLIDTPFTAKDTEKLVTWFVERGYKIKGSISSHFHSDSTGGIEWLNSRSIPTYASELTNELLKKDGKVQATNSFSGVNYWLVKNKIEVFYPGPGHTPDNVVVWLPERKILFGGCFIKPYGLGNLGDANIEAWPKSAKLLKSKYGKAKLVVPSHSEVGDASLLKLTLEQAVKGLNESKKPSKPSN

Row | Compound | IC50 [1, 7] [nM] | IC50 [2, 8] [nM] | Escherichia coli MITC95 [3, 9] [µM] | Serratia marcescens MITC95 [4, 10] [µM] | Klebsiella pneumoniae MITC95 [5, 11] [µM] | IC50 [6, 12] [nM] | Escherichia coli MITC95 [3, 14] [µM] | Serratia marcescens MITC95 [4, 15] [µM] | Klebsiella pneumoniae MITC95 [5, 16] [µM] | IC50 [6, 17] [nM] | IC50 [1, 19] [nM] | Escherichia coli MITC95 [3, 20] [µM] | Serratia marcescens MITC95 [4, 21] [µM] | Klebsiella pneumoniae MITC95 [5, 22] [µM] | IC50 [6, 23] [nM] | other results
1 | NS(=O)(=O)c1c(C(F)(F)F)ccc([C@H]2CC[C@@H](C3CCNCC3)CC2)c1-c1nnn[nH]1 [Example 831, 3-((1s,4s)-4-(piperidin-4-yl)cyclohexyl)-2-(1H-tetrazol-5-yl)-6-(trifluoromethyl)benzenesulfonamide] | 0.892 | 2.84 | 2.344 | 3.125 | 50 | 0.817 |  |  |  |  |  |  |  |  |  | 
2 | CN(C)c1ccc(C(F)(F)F)c(S(N)(=O)=O)c1-c1nnn[nH]1 [Example 784, 3-(dimethylamino)-2-(1H-tetrazol-5-yl)-6-(trifluoromethyl) benzenesulfonamide] | 48.3 | 15.5 | 3.125 | 3.125 | 31.25 | 41.7 |  |  |  |  |  |  |  |  |  | 
3 | NC[C@H]1CC[C@H](c2ccc(C(F)(F)F)c(S(N)(=O)=O)c2-c2nnn[nH]2)CC1 [Example 501, 3-(trans 4-(aminomethyl)cyclohexyl)-2-(1H-tetrazol-5-yl)-6-(trifluoromethyl)benzenesulfonamide] |  |  |  |  |  |  | 1.172 | 1.563 | 1.563 | 1.52 |  |  |  |  |  | IC50 [1]: 5.39 nM; IC50 [2, 13]: 0.516 nM
4 | NS(=O)(=O)c1cccc(COc2ccccc2)c1-c1nnn[nH]1 [Example 142, 3-(phenoxymethyl)-2-(1H-tetrazol-5-yl)benzenesulfonamide] | 81 | 419 |  |  |  | 8.2 |  |  |  |  |  |  |  |  |  | Escherichia coli expressing NDM-1 (CLB 30016) MITC95 [3, 18]: 1.563 µM; Serratia marcescens expressing IMP-1 (CL5741) MITC95 [4, 18]: 6.25 µM; Klebsiella pneumoniae expressing VIM-1 (IHMA 599644) MITC95 [5, 18]: >200 µM
5 | NCC1CCC(N2CC(c3ccc(-c4ccc(C(F)(F)F)c(S(N)(=O)=O)c4-c4nnn[nH]4)cc3)C2)CC1 (stereo not drawn) [Example 813, 4′-{1-[4-(aminomethyl)cyclohexyl]azetidin-3-yl}-2-(1H-tetrazol-5-yl)-4-(trifluoromethyl)biphenyl-3-sulfonamide] | 9.86 |  | 6.25 | 6.25 | 100 | 6.27 |  |  |  |  |  |  |  |  |  | IC50 ([2]; VIM-1 IC50, fluorescence assay with CCF2-FA substrate): 20.6 nM
6 | Nc1ccc(-c2ccc(C(F)(F)F)c(S(N)(=O)=O)c2-c2nn[nH]n2)cn1 [Example 265, 3-(6-aminopyridin-3-yl)-2-(2H-tetrazol-5-yl)-6-(trifluoromethyl)benzenesulfonamide] |  |  |  |  |  |  |  |  |  |  | 6.93 | 0.125 | 0.4271 | 4.775 | 2.65 | IC50 ([2]; VIM-1 IC50, VIM-1 enzyme, CCF2-FA fluorescence assay): 1.26 nM
7 | NCCC1CCC(N2CCC(c3ccc(-c4ccc(C(F)(F)F)c(S(N)(=O)=O)c4-c4nnn[nH]4)cc3)CC2)CC1 (stereo not drawn) [Example 792, 4′-{1-[4-(2-aminoethyl)cyclohexyl]piperidin-4-yl}-2-(1H-tetrazol-5-yl)-4-(trifluoromethyl)biphenyl-3-sulfonamide] | 1.55 | 4.38 | 3.125 | 3.125 | 25 | 7.31 |  |  |  |  |  |  |  |  |  | 
8 | NS(=O)(=O)c1cccc(-c2ccc(CNC3CCC(=O)NC3)cc2)c1-c1nnn[nH]1 (stereo not drawn) [Example 375, 4′-{[(6-oxopiperidin-3-yl)amino]methyl}-2-(1H-tetrazol-5-yl)biphenyl-3-sulfonamide] |  |  |  |  |  |  |  |  |  |  | 97.6 | 1.563 | 3.125 | >200 | 6.13 | IC50 [2, 24]: 533 nM
9 | NS(=O)(=O)c1cccc(-c2ccc(CN[C@@H]3CC[C@H](O)C3)cc2)c1-c1nnn[nH]1 [Example 369, 4′-({[(1R,3S)-3-hydroxycyclopentyl]amino}methyl)-2-(1H-tetrazol-5-yl)biphenyl-3-sulfonamide] |  |  |  |  |  |  |  |  |  |  | 728 | 3.125 | 12.5 | 200 | 25.2 | IC50 [2, 24]: 667 nM
10 | NS(=O)(=O)c1c(C(F)(F)F)ccc(-c2ccc(C3CCN(CC4CNC4)CC3)cc2)c1-c1nnn[nH]1 [Example 671, 4′-[1-(azetidin-3-ylmethyl)piperidin-4-yl]-2-(1H-tetrazol-5-yl)-4-(trifluoromethyl)biphenyl-3-sulfonamide] |  |  |  |  |  |  | 1.172 | 1.563 | 37.5 | 4.13 |  |  |  |  |  | IC50 [1, 25]: 2 nM; IC50 [2, 13]: 5.65 nM
11 | N[C@@]1(c2ccc(-c3ccc(C(F)(F)F)c(S(N)(=O)=O)c3-c3nn[nH]n3)cc2)CCNC1 [Example 548, 3-[4-[(3R)-3-aminopyrrolidin-3-yl]phenyl]-2-(2H-tetrazol-5-yl)-6-(trifluoromethyl)benzenesulfonamide] |  |  |  |  |  |  | 3.125 | 3.125 | 1.563 | 7.54 |  |  |  |  |  | IC50 [1, 25]: 10.5 nM; IC50 [2, 13]: 0.519 nM
12 | Nc1n[nH]c2cc(-c3ccc(C(F)(F)F)c(S(N)(=O)=O)c3-c3nnn[nH]3)ccc12 [Example 477, 3-(3-amino-1H-indazol-6-yl)-2-(1H-tetrazol-5-yl)-6-(trifluoromethyl)benzenesulfonamide] |  |  |  |  |  |  |  |  |  |  | 6.38 | 0.7813 | 0.5859 | 6.25 | 1.01 | IC50 [2, 24]: 0.722 nM
13 | NC1CCC(c2ccc(CCC3CCNCC3)c(S(N)(=O)=O)c2-c2nn[nH]n2)CC1 (stereo not drawn) [Example 838, 3-(4-aminocyclohexyl)-6-[2-(4-piperidyl)ethyl]-2-(2H-tetrazol-5-yl)benzenesulfonamide] | 1680 | 61.2 | 3.125 | 12.5 | 6.25 | 68.3 |  |  |  |  |  |  |  |  |  | 
14 | NS(=O)(=O)Cc1cccc(-c2ccc(C(F)(F)F)c(S(N)(=O)=O)c2-c2nnn[nH]2)c1 [Example 737, 3′-(sulfamoylmethyl)-2-(1H-tetrazol-5-yl)-4-(trifluoromethyl)biphenyl-3-sulfonamide] |  |  |  |  |  |  | 6.25 | 3.125 | 25 | 4.95 |  |  |  |  |  | IC50 [1, 25]: 3.02 nM; IC50 ([2]; VIM-1 IC50, VIM-1 enzyme, CCF2-FA substrate): 4.29 nM
15 | NS(=O)(=O)c1c(C(F)(F)F)ccc(-c2cccc(N3CCCC(O)C3)c2)c1-c1nnn[nH]1 (stereo not drawn) [Example 739, 3′-(3-hydroxypiperidin-1-yl)-2-(1H-tetrazol-5-yl)-4-(trifluoromethyl)biphenyl-3-sulfonamide] |  |  |  |  |  |  | 25 | 25 | >200 | 3.84 |  |  |  |  |  | IC50 [1, 25]: 6.82 nM; IC50 [2, 13]: 2.77 nM
16 | NS(=O)(=O)c1c(CC[C@H]2CC[C@@H](N)CC2)ccc(-c2ccc(C3CCNCC3)cc2)c1-c1nn[nH]n1 [Example 462, 4-(2-((1s,4r)-4-aminocyclohexyl)ethyl)-4′-(piperidin-4-yl)-2-(2H-tetrazol-5-yl)-[1,1′-biphenyl]-3-sulfonamide] |  |  |  |  |  |  |  |  |  |  | 11.5 | 0.7813 | 1.563 | 18.75 | 3.8 | IC50 [2, 24]: 8.13 nM
